Measurements from PMC5397059, “Design, synthesis and structure-activity relationship study of wollamide B; a new potential anti TB agent” (PLoS ONE, 2017).
Converted amounts (≈) assume the structure as drawn. “And” between values parts separate entries of the source, which are not always exact repeats. Equal values may be shown once. Read-outs that look alike come from different tables or passages of the source. Non-standard residues stand in square brackets, D forms with d. Residues, ends and D or L forms follow the SMILES beside them. dPhe(4-Cl) = N[C@H](Cc1ccc(Cl)cc1)C(=O)O; dOrn = NCCC[C@@H](N)C(=O)O

Columns and labels:
Mtb H37Rv = conditions: for MIC against Mtb H37Rv: duplicate, analogues; for antimycobacterial activity against Mtb H37Rv: at the maximum dose tested
[1] = Intrinsic clearance (CLint) assay, human liver microsomes; type: in vitro ADME; conditions: for half-life at 0.5 µM: human, pooled human liver microsomes, pH 7.4, human liver microsomes, read-out: Microsomal t1/2 Human; for % LBF Human: liver blood flow; for CLpred Human: predicted metabolic clearance; for % LBF given as a fraction (metabolic stability class): predicted hepatic clearance, microsomal stability
Experimental: (§1) Pooled mouse and human liver microsomes are purchased from Xenotech. Microsomes (final protein concentration 0.5 mg/mL, MgCl2 (final concentration = 5 mM) and test compound (final substrate concentration = 0.5] M; final DMSO concentration = 0.5%) in 0.1 M phosphate buffer pH 7.4 are pre-incubated at 37°C prior to the addition of NADPH (final concentration = 1 mM) to initiate the reaction. The final incubation volume is 600 μL.
(§2) Control incubation is included for each compound tested where 0.1 M phosphate buffer pH 7.4 is added instead of NADPH (minus NADPH). One control compound is included with each species. All incubations are performed singularly for each test compound. Each compound is incubated for 45 minutes and samples (100 μL) of incubate are taken at 0, 5, 15, 30 and 45 min. The control (minus NADPH) is sampled at 30 min only. The reactions are stopped by the addition of sample to 200 μL Acetonitrile: Methanol 3:1 containing internal standard. The terminated samples are centrifuged at 2,500 rpm for 20 min at 4°C to precipitate the protein. Quantitative analysis: following protein precipitation, the samples were analyzed using specific LC-MS/MS conditions. Data analysis: from a plot of ln peak area ratio (compound peak area/internal standard peak area) against time, the gradient of the line was determined. Subsequently, half-life and intrinsic clearance were calculated using the equations below: Eliminationrateconstant(K)=(−gradient) Halflife(t1/2)(min)=0.693/K Cli(mL/min/gprotien)=V×0.693/t1/2 WhereV=Incubationvolume(mL/gmicrosomalprotien)

[2] = Intrinsic clearance (CLint) assay, mouse liver microsomes; type: in vitro ADME; conditions: for % LBF Mouse: liver blood flow; for CLint Mouse: mouse liver microsomes; for half-life at 0.5 µM: mouse, pooled mouse liver microsomes, pH 7.4, read-out: Microsomal t1/2 Mouse; for CLpred Mouse: predicted metabolic clearance
Experimental: as §1, §2

[3] = Plasma stability assay, mouse plasma; type: in vitro ADME; conditions: CD1, mouse, plasma; 2 hours at 37°C, triplicates; read-out: Plasma stability (% remaining) Mouse
Experimental: (§3) Plasma stability of the compounds was assessed in CD1 mouse and human plasma. Plasma was spiked with 1 μL of a 10 mM of each test compound solution to produce a 1 uM incubation. Three separate 300 μl aliquots were then taken from each tube and incubated at 37°C for 2 h. At each time point (0, 15, 30, 60 and 120 min), 50 μL of plasma were collected from each sample. Samples were extracted by protein precipitation with 250 μL of 0.1% AcOH acetonitrile methanol 3–1 (v/v) containing 1uM internal standard and centrifuged for 10min at 2800rpm. Supernatants were collected prior the injection onto an LC-MS/MS system. Analyte/Internal standard peak area ratios were referenced to the zero time-point samples as 100% in order to determine the percentage of compound remaining for each time-point. Ln plots of the % remaining for each compound were used to determine the half-life for the plasma incubations.

human serum albumin = human serum albumin (Homo sapiens, UniProt P02768); test: Human serum albumin (HSA) binding assay; type: in vitro ADME; conditions: human serum albumin binding
Sequence of human serum albumin (P02768 25-609): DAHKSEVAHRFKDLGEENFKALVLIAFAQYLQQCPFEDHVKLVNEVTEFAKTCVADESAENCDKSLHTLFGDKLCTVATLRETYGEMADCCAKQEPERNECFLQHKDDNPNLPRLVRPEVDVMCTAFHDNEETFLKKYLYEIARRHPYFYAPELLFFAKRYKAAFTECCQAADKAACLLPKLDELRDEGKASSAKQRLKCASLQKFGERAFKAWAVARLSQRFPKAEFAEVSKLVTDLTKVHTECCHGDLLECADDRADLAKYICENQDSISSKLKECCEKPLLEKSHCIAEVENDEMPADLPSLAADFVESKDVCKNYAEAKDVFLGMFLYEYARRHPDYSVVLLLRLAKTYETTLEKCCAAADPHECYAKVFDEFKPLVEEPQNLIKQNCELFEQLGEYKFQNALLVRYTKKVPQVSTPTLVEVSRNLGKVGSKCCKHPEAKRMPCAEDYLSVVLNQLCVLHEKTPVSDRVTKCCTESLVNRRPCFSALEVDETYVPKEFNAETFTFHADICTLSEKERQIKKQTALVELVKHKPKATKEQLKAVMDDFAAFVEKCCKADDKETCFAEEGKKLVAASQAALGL
Experimental: HSA binding assay was performed according to the method described by Valko K, et al. The basic principle of the measurements is the determination of gradient retention times of compounds on immobilized HSA column and converting these retention times to the appropriate property values using calibration. The peaks are detected and identified by UV. Calibration sets of compounds are measured before each run for which the HSA binding values are known. The retention times of the calibration set of compounds are plotted against these known values. The slope and the intercept of the obtained straight lines are used to calculate the HSA binding for the unknown compounds.

[4] = Plasma stability assay, human plasma; type: in vitro ADME; conditions: human, plasma; 2 hours at 37°C, triplicates; read-out: Plasma stability (% remaining) Human
Experimental: as §3

[5] = Chemi-Luminescent Nitrogen Detection (CLND) kinetic solubility assay; type: physicochemical; conditions: phosphate buffered saline, pH 7.4; kinetic aqueous solubility by CLND; read-out: Solubility
Experimental: GSK in-house kinetic solubility assay: 5 μL of 10mM DMSO stock solution diluted to 100 uL with pH7.4 phosphate buffered saline, equilibrated for 1 hour at room temperature, filtered through Millipore Multiscreen HTS-PCF filter plates (MSSL BPC).
The filtrate is quantified by suitably calibrated flow injection CLND. The standard error of the CLND solubility determination is ±30 μM, the upper limit of the solubility is 500 μM when working from 10 mM DMSO stock solution.

Chrom logD assay = type: physicochemical; conditions: pH 7.4, read-out: Log D
Experimental: The Chromatographic Hydrophobicity Index (CHI) values were measured using a reversed phase HPLC column (50 x 2 mmx 3 μMGemini NX C18, Phenomenex, UK) with fast acetonitrile gradient at starting mobile phase of 100% pH = 7.4 buffer. CHI values are derived directly from the gradient retention times by using a calibration line obtained for standard compounds. The CHI value approximates to the volume % organic concentration when the compound elutes. CHI is linearly transformed into ChromlogD by the formula: ChromlogD=0.0857CHI−2.00
The average error of the assay is ±3 CHI unit or ±0.25 ChromlogD.

[6] = Artificial membrane permeability assay; type: in vitro ADME; conditions: PAMPA, pH 7.4; passive artificial membrane permeability; read-out: Permeability
Experimental: A 8% L-a-phosphatidylcholine (EPC) in 1% cholesterol decane solution and a 1.8% EPC in cholesterol decane solution were prepared. The lipid solution was then aliquoted into 4 mL capped vials, sealed with parafilm and stored in-20°Cfreezer. The lipid solution was then transferred from 4 mL vial into 96-well half area plate (130μL/well) for daily assay usage. An additional 50 mM phosphate buffer with 0.5% encapsin, pH at 7.4 was prepared. The assay was run by the Biomek FX and Biomek software. The assay procedure is written under the Biomek software. For one batch assay, it can test two 96-well sample plates with at least one standard on each sample plate. The total assay time was about 4 hours. 3.5 μL of lipid solution were added to the filler plate, shaken for 12 seconds, and 250 μL of buffer were added to donor side and 100 μL to the receiver side. The assay plate was shaken for 45 min before adding the compounds. The test compounds (2.5 μL) were added to the donor side. The assay was run as replicates: Assay plates1 and 2 tested the sample plate 1; assay plates 3 and 4 tested the sample plate 2. The assay plates were then incubated and shaken for 3 hours at room temperature.
The assay samples were transferred to the HPLC analysis plates and 100 μL of receiver solution were aspirated and transferred to the receiver for analysis. Similarly, another 100 μL from the donor solution were transferred to the donor analysis plate.
Compound concentration was measured by HPLC at different time-points and permeability was established as nm/sec.

[7] = reversed phase HPLC column (Gemini NX C18)

SMILES	MIC against Mtb H37Rv (Mtb H37Rv) [µM]	CLint Human ([1]; human liver microsomes) [mL/min/g tissue]	half-life at 0.5 µM [1] [h]	% LBF Human [1] [%]	CLpred Human [1] [mL/min/kg]	% LBF Mouse [2] [%]	CLint Mouse [2] [mL/min/g tissue]	half-life at 0.5 µM [2] [h]	CLpred Mouse [2] [mL/min/kg]	remaining at 2 h, 1 uM [3] [%]	% HSA (human serum albumin)	remaining at 2 h, 1 uM [4] [%]	solubility kinetic at 1 h [5] [µg/mL]	% LBF given as a fraction (metabolic stability class) [1]	chromatographic logD (Chrom logD assay)	Papp at 3 h [6] [×10⁻⁶ cm/s]	Microsomal t1/2 Human ([1]; human liver microsomes) [h]	antimycobacterial activity against Mtb H37Rv (Mtb H37Rv)	chromatographic logD (Chrom logD assay; [7])
CC(C)C[C@@H]1NC(=O)[C@H](C)NC(=O)[C@@H](CCCN)NC(=O)[C@H](CC(N)=O)NC(=O)[C@H](C(C)C)NC(=O)[C@@H](CC(C)C)NC1=O [Compound 3c] (cyclo(AL[dL]VN[dOrn]))	>80	<0.40	> 2.31	<35.08	6.31	<16.27	<0.48	> 2.31	<20.50	92	26% and 25.51%	86	136 (≈ 218 µM)						
CC(C)C[C@@H]1NC(=O)[C@H](Cc2c[nH]c3ccccc23)NC(=O)[C@@H](CCCN)NC(=O)[C@@H](CCCN)NC(=O)[C@H](C(C)C)NC(=O)[C@@H](CC(C)C)NC1=O [Compound 9c] (cyclo(L[dL]V[dOrn][dOrn]W))		0.45	2.03	38.08	6.85	18.68	0.57	1.95	23.53	100	86.46%	100	39 (≈ 52.7 µM)	< 1/3	1.32	1			
CC[C@H](C)[C@@H]1NC(=O)[C@@H](CC(C)C)NC(=O)[C@H](CC(C)C)NC(=O)[C@H](Cc2c[nH]c3ccccc23)NC(=O)[C@@H](CCCN)NC(=O)[C@H](CC(N)=O)NC1=O [Compound 7c] (cyclo(IN[dOrn]WL[dL]))		1.70	0.54	69.81	12.57	<16.27	<0.48	> 2.31	<20.50	98	76.35%	99	≥ 177		1.83	< 1			
CC(C)C[C@@H]1NC(=O)[C@H](Cc2c[nH]c3ccccc23)NC(=O)[C@@H](CCCN)NC(=O)[C@H](CC(N)=O)NC(=O)[C@H](C(C)C)NC(=O)[C@@H](Cc2ccc(Cl)cc2)NC1=O [Compound 16c] (cyclo(L[dPhe(4-Cl)]VN[dOrn]W))		2.43	< 0.5	76.78	13.82	19.21	0.59	1.89	24.21	98	92% and 92.54%	99	≥ 192	> ¾	1.92	< 0.3	0.3773		
CC[C@H](C)[C@@H]1NC(=O)[C@H](CC(C)C)NC(=O)[C@H](Cc2c[nH]c3ccccc23)NC(=O)[C@@H](CCCN)NC(=O)[C@H](CC(N)=O)NC(=O)[C@H](C(C)C)NC1=O [Compound 20c] (cyclo(IVN[dOrn]WL))	>80	<0.40	> 2.31	<35.08	<6.35	<16.3	<0.48	> 2.31	<20.50		83.67%		≥ 195			< 0.3		completely abolished the activity	1.83
CSCC[C@@H]1NC(=O)[C@@H](CC(C)C)NC(=O)[C@H](CC(C)C)NC(=O)[C@H](Cc2c[nH]c3ccccc23)NC(=O)[C@@H](CCCN)NC(=O)[C@H](CC(N)=O)NC1=O [Compound 8c] (cyclo(L[dL]MN[dOrn]W))	>80	1.79	0.511	70.90	12.76	<16.30	<0.48	> 2.31			73.79%		≥ 164			< 1		complete loss of activity	1.78
